Test results: patent publication US9517994B2, “Antibacterial agents: phloroglucinol derivatives” (Rutgers, the State University of New Jersey, priority 2012, dated 2016)
≈ marks a conversion by molar mass, not a printed value.

What was measured:
[1] = system: Haemophilus influenzae ATCC 33391; experiment: MIC, spiral gradient endpoint assay (GC II agar, 5% CO2); conditions: ATCC33391, read-out: MIC H. influenzae 33391
[2] = system: Enterococcus faecalis ATCC 19433; experiment: MIC, spiral gradient endpoint assay; conditions: ATCC19433, 16 h, read-out: MIC E. faecalis 19433
[3] = system: Mycobacterium tuberculosis H37Rv; experiment: MIC, microplate Alamar Blue assay; conditions: read-out: MIC M. tuberculosis H37Rv
[4] = system: Bacillus anthracis Vollum 1B; experiment: microbe, parasite or virus in culture; format: cell-based; conditions: VOLLUM1B, read-out: MIC B. anthracis Vollum-1b
H. influenzae 49247 = experiment: MIC, spiral gradient endpoint assay (GC II agar, 5% CO2); conditions: for MIC: Haemophilus influenzae, 49247, read-out: MIC H. influenzae 49247
[5] = target: M tuberculosis RNA polymerase core enzyme + M. tuberculosis σA (Mycobacterium tuberculosis, UniProt P9WGY7+P9WGY9); experiment: Fluorescence-detected assay of inhibition of Mycobacterium tuberculosis RNA polymerase; format: biochemical; conditions: read-out: IC50 Mt RNAP
Method: (§1) Fluorescence-detected RNA polymerase assays with E. coli RNA polymerase were performed by a modification of the procedure of Kuhlman et al., 2004 (Kuhlman, P., Duff, H. & Galant, A. (2004) Anal. Biochem. 324, 183-190). Reaction mixtures contained (20 μl): 0-100 nM test compound, 75 nM E. coli RNA polymerase σ^70 holoenzyme, 20 nM 384 by DNA fragment containing the bacteriophage T4 N25 promoter, 100 μM ATP, 100 μM GTP, 100 μM UTP, 100 μM CTP, 50 mM Tris-HCl, pH 8.0, 100 mM KCl, 10 mM MgCl2, 1 mM DTT, 10 μg/ml bovine serum albumin, and 5.5% glycerol. Reaction components other than DNA and NTPs were pre-incubated for 10 mm at 37° C. Reactions were carried out by addition of DNA and incubation for 5 min at 37° C., followed by addition of NTPs and incubation for 60 min at 37° C. DNA was removed by addition of 1 μl 5 mM CaCl2 and 2 U DNaseI (Ambion, Inc.), followed by incubation for 90 min at 37° C. RNA was quantified by addition of 100 μl RiboGreen RNA Quantitation Reagent (Invitrogen, Inc.; 1:500 dilution in Tris-HCl, pH 8.0, 1 mM EDTA), followed by incubation for 10 min at 25° C., followed by measurement of fluorescence intensity [excitation wavelength=485 nm and emission wavelength=535 nm; QuantaMaster QMI spectrofluorometer (PTI, Inc.)]. IC50 was defined as the concentration of inhibitor resulting in 50% inhibition of RNA polymerase activity.
(§2) Fluorescence-detected RNA polymerase assays with M tuberculosis RNA polymerase were performed as in Example 17.1, using reaction mixtures containing (20 μl): 0-100 nM test compound, 75 nM M tuberculosis RNA polymerase core enzyme, 300 nM M. tuberculosis σ^A, 20 nM 384 by DNA fragment containing the bacteriophage T4 N25 promoter, 100 μM ATP, 100 μM GTP, 100 μM UTP, 100 μM CTP, 40 mM Tris-HCl, pH 8.0, 80 mM NaCl, 5 mM MgCl2, 2.5 mM DTT, and 12.7% glycerol. IC50 was defined as the concentration of inhibitor resulting in 50% inhibition of RNA polymerase activity.

[6] = system: Francisella tularensis SCHU4; experiment: microbe, parasite or virus in culture; format: cell-based; conditions: SCHU4, read-out: MIC F. tularensis SCHU4
[7] = system: Moraxella catarrhalis ATCC 25238; experiment: MIC, spiral gradient endpoint assay (GC II agar, 5% CO2); conditions: ATCC25238, read-out: MIC M. catarrhalis 25238
[8] = system: Escherichia coli D21f2tolC; experiment: MIC, spiral gradient endpoint assay; conditions: 16 h, read-out: MIC E. coli D21f2tolC
[9] = target: S. aureus RNA polymerase core enzyme + S. aureus σA (Staphylococcus aureus, UniProt P47768+Q2G0N5); experiment: Fluorescence-detected assay of inhibition of Staphylococcus aureus RNA polymerase; format: biochemical; conditions: read-out: IC50 Sa RNAP
Sequence of S. aureus RNA polymerase core enzyme + S. aureus σA (P0A0J0 whole entry): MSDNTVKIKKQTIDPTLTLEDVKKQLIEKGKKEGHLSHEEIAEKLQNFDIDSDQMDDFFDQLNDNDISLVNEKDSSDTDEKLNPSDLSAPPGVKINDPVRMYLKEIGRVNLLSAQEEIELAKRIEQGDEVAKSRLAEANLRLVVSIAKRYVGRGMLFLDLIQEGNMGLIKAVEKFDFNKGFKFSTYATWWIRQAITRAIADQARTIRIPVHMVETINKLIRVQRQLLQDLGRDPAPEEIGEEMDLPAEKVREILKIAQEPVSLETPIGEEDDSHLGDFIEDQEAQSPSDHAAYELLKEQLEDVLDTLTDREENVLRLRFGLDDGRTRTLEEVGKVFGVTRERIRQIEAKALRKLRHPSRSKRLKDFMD
Sequence of S. aureus RNA polymerase core enzyme + S. aureus σA (P47768 whole entry): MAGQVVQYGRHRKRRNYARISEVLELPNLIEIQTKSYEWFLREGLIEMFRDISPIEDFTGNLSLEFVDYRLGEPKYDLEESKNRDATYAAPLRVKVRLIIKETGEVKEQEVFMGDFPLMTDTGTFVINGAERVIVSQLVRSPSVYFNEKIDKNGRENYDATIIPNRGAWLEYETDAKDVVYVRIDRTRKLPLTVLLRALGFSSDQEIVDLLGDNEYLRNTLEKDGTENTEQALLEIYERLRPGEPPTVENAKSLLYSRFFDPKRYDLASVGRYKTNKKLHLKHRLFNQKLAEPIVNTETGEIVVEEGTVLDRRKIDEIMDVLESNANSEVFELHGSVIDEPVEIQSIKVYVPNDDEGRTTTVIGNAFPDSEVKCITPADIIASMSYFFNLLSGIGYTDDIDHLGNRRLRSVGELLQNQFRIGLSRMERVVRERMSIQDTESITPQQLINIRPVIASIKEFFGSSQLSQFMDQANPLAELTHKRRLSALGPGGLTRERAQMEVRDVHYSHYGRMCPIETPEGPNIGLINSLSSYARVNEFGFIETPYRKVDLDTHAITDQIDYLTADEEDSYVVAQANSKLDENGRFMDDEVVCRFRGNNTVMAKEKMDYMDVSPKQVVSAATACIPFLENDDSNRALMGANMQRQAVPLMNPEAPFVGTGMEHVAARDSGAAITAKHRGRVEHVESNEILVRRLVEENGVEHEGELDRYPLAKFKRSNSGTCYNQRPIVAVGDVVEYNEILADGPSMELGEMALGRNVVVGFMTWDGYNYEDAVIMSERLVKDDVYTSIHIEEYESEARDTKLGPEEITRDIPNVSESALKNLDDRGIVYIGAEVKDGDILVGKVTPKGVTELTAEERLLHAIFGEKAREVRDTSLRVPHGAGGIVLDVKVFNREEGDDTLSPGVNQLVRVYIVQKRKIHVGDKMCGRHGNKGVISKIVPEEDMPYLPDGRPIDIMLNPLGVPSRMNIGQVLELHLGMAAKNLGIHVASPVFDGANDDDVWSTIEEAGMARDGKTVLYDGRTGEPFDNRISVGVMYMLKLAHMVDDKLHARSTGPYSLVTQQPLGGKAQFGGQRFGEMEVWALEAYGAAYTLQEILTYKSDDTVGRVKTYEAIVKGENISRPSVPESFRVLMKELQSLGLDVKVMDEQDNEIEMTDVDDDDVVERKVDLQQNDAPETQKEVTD
Sequence of S. aureus RNA polymerase core enzyme + S. aureus σA (Q2G0N5 whole entry): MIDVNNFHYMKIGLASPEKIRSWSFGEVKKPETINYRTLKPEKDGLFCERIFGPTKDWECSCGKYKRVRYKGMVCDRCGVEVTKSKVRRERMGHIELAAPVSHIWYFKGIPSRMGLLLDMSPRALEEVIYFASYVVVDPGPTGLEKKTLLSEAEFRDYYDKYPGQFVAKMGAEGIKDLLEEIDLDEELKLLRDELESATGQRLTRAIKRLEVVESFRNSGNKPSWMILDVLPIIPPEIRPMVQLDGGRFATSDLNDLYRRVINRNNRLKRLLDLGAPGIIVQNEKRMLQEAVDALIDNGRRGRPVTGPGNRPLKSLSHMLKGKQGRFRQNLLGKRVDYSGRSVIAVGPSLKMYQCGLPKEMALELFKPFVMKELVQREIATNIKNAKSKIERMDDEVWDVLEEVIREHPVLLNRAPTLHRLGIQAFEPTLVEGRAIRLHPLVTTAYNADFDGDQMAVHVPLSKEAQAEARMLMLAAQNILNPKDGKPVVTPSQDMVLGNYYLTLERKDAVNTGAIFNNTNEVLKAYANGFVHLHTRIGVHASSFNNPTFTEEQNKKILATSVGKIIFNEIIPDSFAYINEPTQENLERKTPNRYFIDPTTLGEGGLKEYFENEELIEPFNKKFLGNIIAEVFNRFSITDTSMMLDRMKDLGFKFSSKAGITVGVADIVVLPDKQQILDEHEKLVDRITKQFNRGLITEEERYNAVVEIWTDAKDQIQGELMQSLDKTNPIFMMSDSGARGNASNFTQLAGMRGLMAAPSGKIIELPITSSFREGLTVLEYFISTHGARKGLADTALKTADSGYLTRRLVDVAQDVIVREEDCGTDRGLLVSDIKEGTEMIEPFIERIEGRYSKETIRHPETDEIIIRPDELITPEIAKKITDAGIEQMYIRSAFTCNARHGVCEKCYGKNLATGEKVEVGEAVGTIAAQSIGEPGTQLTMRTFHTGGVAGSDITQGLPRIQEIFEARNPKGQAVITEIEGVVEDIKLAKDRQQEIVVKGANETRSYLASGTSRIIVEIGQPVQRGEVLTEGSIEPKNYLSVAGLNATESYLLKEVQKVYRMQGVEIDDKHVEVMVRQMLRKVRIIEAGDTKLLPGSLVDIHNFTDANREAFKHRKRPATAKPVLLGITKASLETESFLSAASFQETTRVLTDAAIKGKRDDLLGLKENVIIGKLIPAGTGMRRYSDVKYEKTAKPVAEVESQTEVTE
Sequence of S. aureus RNA polymerase core enzyme + S. aureus σA (Q2FW32 whole entry, further chain): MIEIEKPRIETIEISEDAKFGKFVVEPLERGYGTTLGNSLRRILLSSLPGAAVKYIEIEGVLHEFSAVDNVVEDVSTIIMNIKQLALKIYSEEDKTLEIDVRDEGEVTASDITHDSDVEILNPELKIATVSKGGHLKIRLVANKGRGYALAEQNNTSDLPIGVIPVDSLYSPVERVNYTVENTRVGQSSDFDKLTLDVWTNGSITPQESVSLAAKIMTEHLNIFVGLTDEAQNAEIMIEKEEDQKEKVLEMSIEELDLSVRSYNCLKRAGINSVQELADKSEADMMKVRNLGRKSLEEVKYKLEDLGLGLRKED
Method: as §1
as §2, with “S. aureus” for “M tuberculosis”, “S. aureus” for “M. tuberculosis”

[10] = system: Staphylococcus aureus ATCC 12600; experiment: MIC, spiral gradient endpoint assay; conditions: ATCC12600, 16 h, read-out: MIC S. aureus 12600
[11] = target: E. coli RNA polymerase σ70 holoenzyme (Escherichia coli, UniProt P0A8T7+P0A8V2); experiment: Fluorescence-detected assay of inhibition of Escherichia coli RNA polymerase; format: biochemical; conditions: RiboGreen fluorescence, read-out: IC50 Ec RNAP
Method: as §1

Burkholderia mallei CHN7 = experiment: microbe, parasite or virus in culture; format: cell-based; conditions: CHN7, read-out: MIC B. mallei CHN7

| SMILES | MIC [1] [µg/mL] | MIC [2] [µg/mL] | MIC [3] [µg/mL] | MIC [4] [µg/mL] | MIC (H. influenzae 49247) [µg/mL] | IC50 [5] [µM] | MIC [6] [µg/mL] | MIC [7] [µg/mL] | MIC [8] [µg/mL] | IC50 [9] [µM] | MIC [10] [µg/mL] | IC50 [11] [µM] | MIC (Burkholderia mallei CHN7) [µg/mL] | MIC50 (H. influenzae 49247; Haemophilus influenzae, 49247, read-out: MIC50 H. influenzae 49247) [µg/mL] |
| --- | --- | --- | --- | --- | --- | --- | --- | --- | --- | --- | --- | --- | --- | --- |
| O=C(CCc1ccc(Cl)cc1)c1c(O)cc(O)cc1O [0MTK13, 3-(4-chlorophenyl)propanoyl-phloroglucinol] | 32 (≈ 109 µM) | 11 (≈ 37.6 µM) | 25 (≈ 85.4 µM) | 6.25 (≈ 21.4 µM) | 32 (≈ 109 µM) | 2.3 | 3.12 (≈ 10.7 µM) | 32 (≈ 109 µM) | 2.7 (≈ 9.22 µM) | 4.3 | 4 (≈ 13.7 µM) | 1.1 | 12.5 (≈ 42.7 µM) |  |
| O=C(CCc1ccc(C(F)(F)F)cc1C(F)(F)F)c1c(O)cc(O)cc1O [0MTK32, 3-(2,4-bis(trifluoromethyl)phenyl)propanoyl-phloroglucinol] |  | 6.6 (≈ 16.7 µM) |  |  |  | 3.3 |  |  | 2.2 (≈ 5.58 µM) | 3.7 | 3.6 (≈ 9.13 µM) | 2 |  |  |
| O=C(CCc1ccc(C(F)(F)F)cc1)c1c(O)cc(O)cc1O [OMTK23, 3-(4-trifluoromethylphenyl)propanoyl-phloroglucinol] |  | 25 (≈ 76.6 µM) |  |  |  | 2.3 |  |  | 5 (≈ 15.3 µM) | 4.8 | 12 (≈ 36.8 µM) | 1.6 |  |  |
| COc1cccc(CCC(=O)c2c(O)cc(O)cc2O)c1 [OMTK15, 3-(3-methoxyphenyl)propanoyl-phloroglucinol] | > 40 | > 40 | 50 (≈ 173 µM) | 25 (≈ 86.7 µM) | > 40 | 3 | 12.5 (≈ 43.4 µM) | > 40 | 12 (≈ 41.6 µM) | 7.2 | > 40 | 3 | > 50 |  |
| O=C(CCc1ccc(Br)cc1)c1c(O)cc(O)cc1O [OMTK22, 3-(4-bromophenyl)propanoyl-phloroglucinol] |  | 22 (≈ 65.2 µM) |  |  |  | 1.7 |  |  | 5 (≈ 14.8 µM) | 3.7 | 10 (≈ 29.7 µM) | 1.3 |  |  |
| COc1ccccc1CCC(=O)c1c(O)cc(O)cc1O [OMTK14, 3-(2-methoxyphenyl)propanoyl-phloroglucinol] | > 40 | > 40 | > 50 | 25 (≈ 86.7 µM) | > 40 | 9.9 | 12.5 (≈ 43.4 µM) | > 40 | 12 (≈ 41.6 µM) | 7.2 | > 40 | 2.7 | > 50 |  |
| O=C(CCc1cccc(Cl)c1)c1c(O)cc(O)cc1O [0MTK12, 3-(3-chlorophenyl)propanoyl-phloroglucinol] | > 40 | 32 (≈ 109 µM) | 50 (≈ 171 µM) | 12.5 (≈ 42.7 µM) | > 40 | 4.8 | 3.12 (≈ 10.7 µM) | > 40 | 6 (≈ 20.5 µM) | 9 | 16 (≈ 54.7 µM) | 2.6 | 50 (≈ 171 µM) |  |
| CC(C)c1ccc(CCC(=O)c2c(O)cc(O)cc2O)cc1 [0MTK27, 3-(4-isopropylphenyl)propanoyl-phloroglucinol] |  | 16 (≈ 53.3 µM) |  |  |  | 4.9 |  |  | 4.3 (≈ 14.3 µM) | 5.4 | 9.8 (≈ 32.6 µM) | 2.3 |  |  |
| O=C(CCc1ccccc1Cl)c1c(O)cc(O)cc1O [0MTK11, 3-(2-chlorophenyl)propanoyl-phloroglucinol] | > 40 | > 40 | > 50 | 6.25 (≈ 21.4 µM) |  | 2.5 | 3.12 (≈ 10.7 µM) | > 40 | 8 (≈ 27.3 µM) | 11 | 16 (≈ 54.7 µM) | 3.5 | 50 (≈ 171 µM) | 35 (≈ 120 µM) |
| CCc1ccc(CCC(=O)c2c(O)cc(O)cc2O)cc1 [0MTK26, 3-(4-ethylphenyl)propanoyl-phloroglucinol] |  | 36 (≈ 126 µM) |  |  |  | 3.6 |  |  | 6.2 (≈ 21.7 µM) | 5.4 | 12.5 (≈ 43.7 µM) | 1.5 |  |  |
| Cc1ccccc1CCC(=O)c1c(O)cc(O)cc1O [OMTK18, 3-(2-methylphenyl)propanoyl-phloroglucinol] |  | > 40 |  |  |  | 3.9 |  |  | 11 (≈ 40.4 µM) | 7.9 | > 40 | 2.7 |  |  |
| Cc1cc(F)ccc1CCC(=O)c1c(O)cc(O)cc1O [0MTK30, 3-(4-fluoro-2-methylphenyl)propanoyl-phloroglucinol] |  | 26 (≈ 89.6 µM) |  |  |  | 3.7 |  |  | 7 (≈ 24.1 µM) | 4.1 | 16 (≈ 55.1 µM) | 1.8 |  |  |
| O=C(CCc1ccc(F)cc1)c1c(O)cc(O)cc1O [OMTK21, 3-(4-fluorophenyl)propanoyl-phloroglucinol] |  | > 40 |  |  |  | 4.4 |  |  | 10 (≈ 36.2 µM) | 7.2 | > 40 | 2.4 |  |  |
| O=C(CCc1ccccc1C(F)(F)F)c1c(O)cc(O)cc1O [0MTK31, 3-(2-(trifluoromethyl)phenyl)propanoyl-phloroglucinol] |  | 22 (≈ 67.4 µM) |  |  |  | 3.5 |  |  | 6 (≈ 18.4 µM) | 4.8 | 14 (≈ 42.9 µM) | 1.9 |  |  |
| CC(C)(C)c1ccc(CCC(=O)c2c(O)cc(O)cc2O)cc1 [0MTK28, 3-((4-tert-butyl)phenyl)propanoyl-phloroglucinol] |  | 11 (≈ 35 µM) |  |  |  | 4.6 |  |  | 3 (≈ 9.54 µM) | 6.4 | 6.9 (≈ 21.9 µM) | 2.7 |  |  |
